Nine compounds from ChEMBL document CHEMBL1201862, “PubChem BioAssay data set” (2004) can be followed below.

Experiment [1] has as its target E3 ubiquitin-protein ligase Mdm2 (Homo sapiens, UniProt Q00987). The experiment in a line: MDM2-luc reporter signal enhancers, multi-concentration potency testing, MDM2 ubiquitin-protein ligase inhibitor program, whole-cell format, luminescence detection, 384-well microplate (AID 1394).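 Note: MDM2 E3 inhibitors raise luminescence so EC50 is for signal enhancement.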 It counts as functional.
The target of experiment [2] is T1, Bcl-2-related protein A1 (Mus musculus, UniProt Q07440).
T1 sequence (Q07440 whole entry): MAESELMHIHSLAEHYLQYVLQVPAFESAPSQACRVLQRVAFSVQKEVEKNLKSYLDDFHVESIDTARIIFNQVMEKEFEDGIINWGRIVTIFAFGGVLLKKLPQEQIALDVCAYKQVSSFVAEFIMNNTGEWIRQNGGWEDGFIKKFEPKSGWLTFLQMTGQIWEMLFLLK
The experiment is described as follows: displacement of Bid BH3 peptide from Bfl-1 – biochemical, fluorescence polarization, FITC-Bid, mouse, primary screen (AID 432). For orientation: In fluorescence polarisation assays a small probe gives low polarisation when free and higher when bound to something large.

Experiment [3] concerns the target T2, Polyadenylate-binding protein 1 (Homo sapiens, UniProt P11940). The experiment is described as follows: MLLE domain peptide-binding blockers, IC50 – biochemical, fluorescence polarization, FITC-PAM2 peptide, dose response (AID 602259). It counts as functional. As to conditions: read-out: IC50_Mean.
For experiment [4], the target named is T1, Bcl-2-related protein A1. The experiment is described as follows: small-molecule antagonists of Bfl-1/BH3 interaction – biochemical, TR-FRET, mouse Bfl-1, confirmation (AID 621).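 Note: TR-FRET binding of GST-Bfl-1 to FITC-labelled Bid peptide via terbium antibody.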 A general note: In TR-FRET formats the signal depends on donor and acceptor labels being close together.
Experiment [5] concerns the target T2, Polyadenylate-binding protein 1. The experiment in a line: MLLE binding blockers, Cy5 peptide tracer – biochemical, fluorescence polarization, Cy5-PAM2 peptide, secondary, miRNA deadenylation inhibitor project, dose response (AID 602260). It counts as functional. As to conditions: read-out: IC50_Mean.
Experiment [6] concerns HEK293. The experiment is described as follows: viability loss in HEK293T cells – cell-based, ATP luminescence, cherry-pick samples, cytotoxicity control, dose response (AID 687005).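 Note: cells exposed to compound for 48 hours.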 It counts as functional. The following applies: Homo sapiens.
The nature of experiment [7]: HEK293 Cytotoxicity Assay Measured in Cell-Based System Using Plate Reader - 7071-01_Inhibitor_Dose_CherryPick_Activity_Set2. It counts as functional.
Experiment [8] has as its target Endoplasmic reticulum aminopeptidase 1 (Homo sapiens, UniProt Q9NZ08). The experiment in a line: inhibition of human ERAP1 enzyme activity – biochemical, cherry-pick, set 2, plate reader, dose response (AID 743314).
The target in experiment [9] is Endoplasmic reticulum aminopeptidase 2 (Homo sapiens, UniProt Q6P179). The experiment in a line: inhibition of ERAP2 arginine-AMC cleavage – biochemical, fluorescence plate reader, cherry-picked, set 2, selectivity assay for selective ERAP1 modulator project, dose response (AID 743320).
Sequence of Endoplasmic reticulum aminopeptidase 2 (Q6P179 whole entry): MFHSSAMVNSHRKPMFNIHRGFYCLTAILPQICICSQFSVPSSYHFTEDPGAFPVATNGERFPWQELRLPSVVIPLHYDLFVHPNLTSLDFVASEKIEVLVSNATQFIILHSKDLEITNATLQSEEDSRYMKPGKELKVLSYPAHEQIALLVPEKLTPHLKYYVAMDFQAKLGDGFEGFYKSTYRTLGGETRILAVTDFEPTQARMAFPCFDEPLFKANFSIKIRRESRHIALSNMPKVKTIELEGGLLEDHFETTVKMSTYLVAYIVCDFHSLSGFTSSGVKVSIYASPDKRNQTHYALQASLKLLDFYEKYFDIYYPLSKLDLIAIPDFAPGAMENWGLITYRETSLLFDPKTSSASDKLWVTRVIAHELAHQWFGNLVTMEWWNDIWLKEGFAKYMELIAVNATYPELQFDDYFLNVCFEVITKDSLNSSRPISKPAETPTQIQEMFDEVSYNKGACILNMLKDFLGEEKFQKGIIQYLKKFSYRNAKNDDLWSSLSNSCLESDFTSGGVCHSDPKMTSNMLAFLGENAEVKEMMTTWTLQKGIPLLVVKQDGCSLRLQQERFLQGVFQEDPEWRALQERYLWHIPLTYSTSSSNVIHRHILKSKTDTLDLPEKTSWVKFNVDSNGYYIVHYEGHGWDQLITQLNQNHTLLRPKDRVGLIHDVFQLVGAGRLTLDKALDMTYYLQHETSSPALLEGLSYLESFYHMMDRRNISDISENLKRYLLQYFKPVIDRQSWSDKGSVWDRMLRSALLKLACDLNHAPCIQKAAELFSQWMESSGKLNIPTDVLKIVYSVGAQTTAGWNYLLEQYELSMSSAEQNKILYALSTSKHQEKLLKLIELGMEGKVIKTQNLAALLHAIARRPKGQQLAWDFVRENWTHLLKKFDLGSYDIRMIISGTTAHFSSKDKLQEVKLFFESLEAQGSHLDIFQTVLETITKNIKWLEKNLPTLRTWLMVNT
Experiment [10] concerns the target 1-phosphatidylinositol 4,5-bisphosphate phosphodiesterase gamma-1 (Homo sapiens, UniProt P19174). The experiment is described as follows: Counterscreen for inhibitors of phospholipase C isozymes (PLC-B3): Fluorescence-based biochemical high throughput dose response assay to identify inhibitors of phospholipase C isozymes (PLC-gamma1). Background: A counterscreen serves to expose hits that act by an unwanted route or on another target.

For experiment [11], the target named is 1-phosphatidylinositol 4,5-bisphosphate phosphodiesterase beta-3 (Homo sapiens, UniProt Q01970). The experiment in a line: Fluorescence-based biochemical high throughput dose response assay to identify inhibitors of phospholipase C isozymes (PLC-B3).
In experiment [12] the target is T3, Methionyl-tRNA synthetase, putative (Trypanosoma brucei brucei, UniProt Q38C91). It counts as functional, Trypanosoma brucei brucei strain 927/4 GUTat10.1.
T3 sequence (Q38C91 whole entry): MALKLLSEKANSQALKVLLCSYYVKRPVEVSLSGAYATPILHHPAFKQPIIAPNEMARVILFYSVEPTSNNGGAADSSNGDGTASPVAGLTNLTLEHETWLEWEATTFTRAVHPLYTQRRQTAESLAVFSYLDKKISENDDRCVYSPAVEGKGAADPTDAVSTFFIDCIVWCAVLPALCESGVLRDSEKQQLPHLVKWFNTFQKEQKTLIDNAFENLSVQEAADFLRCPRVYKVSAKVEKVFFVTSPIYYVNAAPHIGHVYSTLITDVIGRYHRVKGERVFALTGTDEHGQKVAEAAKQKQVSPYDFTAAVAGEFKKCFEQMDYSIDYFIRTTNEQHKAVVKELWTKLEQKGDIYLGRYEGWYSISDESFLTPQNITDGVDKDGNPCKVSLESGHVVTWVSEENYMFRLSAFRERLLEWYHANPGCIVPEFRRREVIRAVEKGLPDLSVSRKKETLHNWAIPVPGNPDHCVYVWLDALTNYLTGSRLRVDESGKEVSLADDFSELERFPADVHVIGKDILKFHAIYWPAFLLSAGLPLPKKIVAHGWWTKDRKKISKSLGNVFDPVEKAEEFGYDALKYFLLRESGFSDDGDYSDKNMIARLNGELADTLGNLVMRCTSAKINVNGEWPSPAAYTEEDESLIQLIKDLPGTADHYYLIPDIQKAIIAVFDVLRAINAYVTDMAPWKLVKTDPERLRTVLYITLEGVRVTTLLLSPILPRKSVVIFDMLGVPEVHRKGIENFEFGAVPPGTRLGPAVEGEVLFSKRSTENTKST
Experiment [13] in a line: Late stage counterscreen for inhibitors of Trypanosoma brucei methionyl tRNA synthetase (MetRS): Luminescence-based cell-based high throughput dose response assay to identify compounds that are cytotoxic to Jurkat human T lymphocyte cells. It counts as functional.
The target of experiment [14] is T3, Methionyl-tRNA synthetase, putative. It counts as functional, Trypanosoma brucei brucei strain 927/4 GUTat10.1. The source holds these as a separate data set.
Experiment [15] in a line: Counterscreen for inhibitors of Trypanosoma brucei methionyl tRNA synthetase (MetRS): Luminescence-based cell-based high throughput dose response assay to identify compounds that are cytotoxic to Jurkat human T lymphocyte cells. It counts as functional.
Experiment [16] concerns the target T4, Tyrosine-protein phosphatase non-receptor type 7 (Homo sapiens, UniProt P35236).
T4 sequence (P35236 whole entry): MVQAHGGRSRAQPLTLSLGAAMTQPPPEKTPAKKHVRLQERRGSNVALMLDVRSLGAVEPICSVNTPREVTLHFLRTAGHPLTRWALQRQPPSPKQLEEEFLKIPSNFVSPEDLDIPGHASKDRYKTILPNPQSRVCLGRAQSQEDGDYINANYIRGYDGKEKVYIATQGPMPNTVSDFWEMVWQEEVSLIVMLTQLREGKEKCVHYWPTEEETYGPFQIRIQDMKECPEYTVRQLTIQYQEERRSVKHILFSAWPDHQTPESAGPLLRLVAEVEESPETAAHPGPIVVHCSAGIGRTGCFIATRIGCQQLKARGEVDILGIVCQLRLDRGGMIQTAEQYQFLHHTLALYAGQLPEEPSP
The experiment is described as follows: HePTP tyrosine phosphatase activity blockers – biochemical, absorbance, leukemia target, primary screen (AID 521). It counts as functional.

A short description of experiment [17]: MITF: Counter assay: A375 proliferation Measured in Cell-Based System Using Plate Reader - 2084-03_Inhibitor_Dose_DryPowder_Activity_Set8. As to conditions: A-375. It counts as functional.
The nature of experiment [18]: inhibitors of TRPM1-promoter reporter in SK-MEL-5 – cell-based, luciferase, dry powder, set 8, MITF inhibitor project, dose response (AID 624430). It counts as functional.
Experiment [19] can be described thus: MITF Orthogonal Assay: SK-MEL-5 CTG Assay Measured in Cell-Based System Using Plate Reader - 2084-02_Inhibitor_Dose_DryPowder_Activity_Set7. It counts as functional.
For experiment [20], the system named is Streptococcus sp. 'group A'. The experiment in a line: Streptococcus pyogenes SK(-)GAS viability under kanamycin – luminescence, BacTiterGlo, confirmation, counter-screen for streptokinase expression inhibitor project, dose response (AID 1900). It counts as functional, organism-based.
For experiment [21], the system named is H9c2. The experiment in a line: cells. The following applies: Rattus norvegicus, H9c2, Myocardium. It counts as functional, cell-based.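 Note: confirmatory concentration-response retest of ultra-high-throughput screening hits for modulation of myocardial damage; cell death induced by hydrogen peroxide oxidative stress; compound pretreatment for 60 min then peroxide exposure for 2 h; potency is for protecting the cells against peroxide damage rather than for killing them.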
Experiment [22] deals with Streptococcus. The experiment in a line: GAS UMAA2166 growth inhibition – luminescence, BacTiterGlo, counter-screen for streptokinase expression inhibitor project, dose response (AID 1915).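 Note: potency for reduction of bacterial viability or growth.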 It counts as functional, organism-based.
Experiment [23] addresses Transthyretin (Homo sapiens, UniProt P02766). The experiment in a line: Luminescence-based cell-based high throughput dose response assay to identify activators of Transthyretin (TTR) transcription. It counts as functional.
Experiment [24] concerns the target T5, Streptokinase A (Streptococcus pyogenes serotype M1, UniProt P10520).
T5 sequence (P10520 whole entry): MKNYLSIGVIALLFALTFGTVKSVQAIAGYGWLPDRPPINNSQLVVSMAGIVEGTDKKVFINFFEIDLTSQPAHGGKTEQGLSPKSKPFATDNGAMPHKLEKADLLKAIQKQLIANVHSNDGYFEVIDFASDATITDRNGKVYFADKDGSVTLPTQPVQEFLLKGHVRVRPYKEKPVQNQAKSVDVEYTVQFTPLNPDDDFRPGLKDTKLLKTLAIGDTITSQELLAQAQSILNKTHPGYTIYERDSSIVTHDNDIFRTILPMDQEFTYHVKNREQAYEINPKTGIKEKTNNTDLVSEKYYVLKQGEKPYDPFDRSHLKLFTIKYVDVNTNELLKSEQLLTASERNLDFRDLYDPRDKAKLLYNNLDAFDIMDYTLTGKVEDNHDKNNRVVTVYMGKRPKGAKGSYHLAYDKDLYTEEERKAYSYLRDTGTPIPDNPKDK
The experiment in a line: viability-normalized secreted streptokinase activity reduction – plasminogen activation absorbance, OD405, dose response (AID 1914).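 Note: secreted streptokinase activity via plasminogen activation per viability signal from cell pellet.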 It counts as functional, Streptococcus pyogenes M1 GAS.

Activity calls are given as the source filed them.

T2 sequence (P11940 whole entry, the tested form may be a part): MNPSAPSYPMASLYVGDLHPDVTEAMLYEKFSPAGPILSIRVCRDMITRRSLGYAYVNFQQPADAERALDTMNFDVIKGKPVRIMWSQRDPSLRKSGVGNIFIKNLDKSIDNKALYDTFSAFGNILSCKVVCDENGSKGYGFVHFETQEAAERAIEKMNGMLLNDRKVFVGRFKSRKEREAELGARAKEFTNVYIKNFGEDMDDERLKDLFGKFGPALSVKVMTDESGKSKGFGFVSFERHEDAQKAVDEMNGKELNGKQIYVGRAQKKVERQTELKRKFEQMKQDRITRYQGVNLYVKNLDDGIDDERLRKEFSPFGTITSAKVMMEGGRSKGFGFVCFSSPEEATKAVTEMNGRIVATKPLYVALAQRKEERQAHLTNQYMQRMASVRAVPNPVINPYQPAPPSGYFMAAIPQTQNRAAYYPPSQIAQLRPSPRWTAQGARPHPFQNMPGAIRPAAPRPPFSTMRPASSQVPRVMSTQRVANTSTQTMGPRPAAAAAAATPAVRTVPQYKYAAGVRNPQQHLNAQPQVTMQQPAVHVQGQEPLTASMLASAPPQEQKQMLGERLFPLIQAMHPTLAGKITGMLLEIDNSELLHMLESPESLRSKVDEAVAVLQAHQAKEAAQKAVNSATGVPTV
Sequence of 1-phosphatidylinositol 4,5-bisphosphate phosphodiesterase gamma-1 (P19174 whole entry): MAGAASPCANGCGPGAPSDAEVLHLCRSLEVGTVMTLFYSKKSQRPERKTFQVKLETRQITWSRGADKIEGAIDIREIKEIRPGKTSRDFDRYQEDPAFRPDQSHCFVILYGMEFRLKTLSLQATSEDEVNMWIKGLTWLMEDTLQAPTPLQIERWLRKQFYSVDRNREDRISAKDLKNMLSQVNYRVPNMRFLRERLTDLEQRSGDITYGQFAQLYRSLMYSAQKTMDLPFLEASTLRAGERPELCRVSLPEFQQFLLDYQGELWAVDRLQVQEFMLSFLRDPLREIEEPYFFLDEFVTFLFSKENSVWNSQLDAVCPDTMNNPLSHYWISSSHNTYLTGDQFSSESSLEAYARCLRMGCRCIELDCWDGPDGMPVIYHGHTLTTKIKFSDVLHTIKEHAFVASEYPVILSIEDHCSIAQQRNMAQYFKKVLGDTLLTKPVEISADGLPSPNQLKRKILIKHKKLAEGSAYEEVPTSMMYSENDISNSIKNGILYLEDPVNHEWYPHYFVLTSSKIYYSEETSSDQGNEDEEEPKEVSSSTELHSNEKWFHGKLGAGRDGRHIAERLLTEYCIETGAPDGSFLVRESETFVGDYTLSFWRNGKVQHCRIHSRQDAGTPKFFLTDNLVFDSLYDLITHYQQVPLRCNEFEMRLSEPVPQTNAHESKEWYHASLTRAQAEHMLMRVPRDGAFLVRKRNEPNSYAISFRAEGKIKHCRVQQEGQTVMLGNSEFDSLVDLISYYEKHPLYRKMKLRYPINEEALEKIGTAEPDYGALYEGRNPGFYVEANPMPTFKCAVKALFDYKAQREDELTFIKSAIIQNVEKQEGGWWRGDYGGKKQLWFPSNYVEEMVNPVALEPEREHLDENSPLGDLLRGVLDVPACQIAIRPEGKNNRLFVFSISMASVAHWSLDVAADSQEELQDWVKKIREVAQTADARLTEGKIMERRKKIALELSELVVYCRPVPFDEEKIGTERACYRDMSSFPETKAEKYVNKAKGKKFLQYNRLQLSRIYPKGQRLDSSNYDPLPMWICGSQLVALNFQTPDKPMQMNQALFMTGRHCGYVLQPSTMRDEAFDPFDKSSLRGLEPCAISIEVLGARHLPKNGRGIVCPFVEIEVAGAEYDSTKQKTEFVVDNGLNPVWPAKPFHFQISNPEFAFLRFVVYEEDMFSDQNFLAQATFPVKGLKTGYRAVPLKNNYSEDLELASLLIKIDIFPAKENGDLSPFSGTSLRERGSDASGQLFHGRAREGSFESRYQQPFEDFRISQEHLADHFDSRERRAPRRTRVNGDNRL
Sequence of E3 ubiquitin-protein ligase Mdm2 (Q00987 whole entry): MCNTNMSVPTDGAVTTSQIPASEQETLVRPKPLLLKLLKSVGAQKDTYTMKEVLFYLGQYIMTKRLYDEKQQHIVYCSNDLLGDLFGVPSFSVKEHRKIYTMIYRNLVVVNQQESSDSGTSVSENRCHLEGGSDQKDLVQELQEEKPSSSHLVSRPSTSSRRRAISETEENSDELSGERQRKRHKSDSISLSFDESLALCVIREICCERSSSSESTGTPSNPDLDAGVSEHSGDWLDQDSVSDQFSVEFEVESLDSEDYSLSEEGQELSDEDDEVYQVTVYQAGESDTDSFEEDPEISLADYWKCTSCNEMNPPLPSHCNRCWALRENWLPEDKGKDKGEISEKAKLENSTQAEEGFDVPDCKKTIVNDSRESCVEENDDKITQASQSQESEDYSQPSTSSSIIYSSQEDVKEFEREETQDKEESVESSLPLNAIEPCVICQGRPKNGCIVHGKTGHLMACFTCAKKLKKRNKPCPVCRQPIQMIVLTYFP
Sequence of Endoplasmic reticulum aminopeptidase 1 (Q9NZ08 whole entry): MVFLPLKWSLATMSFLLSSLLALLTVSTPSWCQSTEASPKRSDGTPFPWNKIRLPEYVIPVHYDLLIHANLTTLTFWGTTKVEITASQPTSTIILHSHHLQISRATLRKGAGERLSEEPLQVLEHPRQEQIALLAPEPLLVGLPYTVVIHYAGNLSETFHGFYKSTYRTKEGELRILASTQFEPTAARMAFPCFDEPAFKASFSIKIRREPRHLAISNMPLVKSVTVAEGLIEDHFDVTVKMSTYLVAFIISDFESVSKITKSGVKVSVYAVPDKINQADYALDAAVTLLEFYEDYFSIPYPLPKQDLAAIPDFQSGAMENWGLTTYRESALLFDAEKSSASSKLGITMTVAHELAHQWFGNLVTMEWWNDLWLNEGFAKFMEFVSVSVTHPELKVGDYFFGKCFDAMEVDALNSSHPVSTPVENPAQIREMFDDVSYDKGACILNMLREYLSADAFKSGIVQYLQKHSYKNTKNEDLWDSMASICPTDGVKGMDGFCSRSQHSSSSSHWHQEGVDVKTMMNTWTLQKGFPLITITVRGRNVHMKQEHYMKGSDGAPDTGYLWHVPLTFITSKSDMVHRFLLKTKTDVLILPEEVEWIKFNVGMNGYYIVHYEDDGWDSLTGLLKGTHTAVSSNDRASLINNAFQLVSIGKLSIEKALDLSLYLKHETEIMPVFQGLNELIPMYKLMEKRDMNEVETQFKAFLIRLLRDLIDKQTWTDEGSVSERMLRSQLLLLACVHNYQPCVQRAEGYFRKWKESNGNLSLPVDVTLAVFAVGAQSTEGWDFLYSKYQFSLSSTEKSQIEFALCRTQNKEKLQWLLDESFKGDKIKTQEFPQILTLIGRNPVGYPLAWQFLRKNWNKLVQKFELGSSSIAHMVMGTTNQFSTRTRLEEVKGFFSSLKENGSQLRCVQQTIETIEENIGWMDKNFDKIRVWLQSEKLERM

As for `Cc1ccc(-c2nc3ccccc3c(=O)n2-c2cccnc2)cc1`, the EC50 in experiment [1] is on record as 54.5 µM (not active).
Regarding `NC(=O)N1c2ccccc2CC(=O)c2ccccc21` [OXCARBAZEPINE], the IC50 in [2] is > 100 µM (not active); in experiment [3], 28.1 µM (inactive); in experiment [4] it was > 100 µM (not active); in experiment [5], > 66 µM (inactive).
For `COc1ccc(-n2cc(CNCCc3nc(C)cc(C)n3)c(-c3ccccc3Cl)n2)cc1`, the AC50 in [6] and in experiment [7] was 11.4 µM (active) each time.
With `CC(C)[C@@H](C(=O)N[C@@H](CCc1ccc(O)cc1)C(=O)O)N(C)C(=O)[C@H](CO)NC(=O)[C@@H](O)[C@H](N)CCCCCCCCl`, the AC50 in experiment [8] is 0.682 µM (active); in [9], 1.47 µM (active).
In the case of `NC(=O)CC(NC(=O)Cc1cccc2ccccc12)c1ccc(N2CCCCCC2)c([N+](=O)[O-])c1` (centres undefined), the IC50 in experiment [10] and in [11] was > 122 µM (inactive) each time.
Turning to `Clc1ccc(-c2nnc(SCc3nc4ccccc4[nH]3)o2)c(Cl)c1`, the IC50 was 0.802 µM (active) in experiment [12], > 83.3 µM (inactive) in [13], 0.401 µM (active) in experiment [14] and 83.3 µM (inactive) in [15].
On to `Cc1ccc(-n2nnc3c(=O)n(CC(=O)NCc4ccco4)cnc32)cc1`, for which the IC50 in [16] is recorded as > 100 µM (not active).
In the case of `COc1ccc(NC2=C(N3CCN(C)CC3)C(=O)c3ccccc3C2=O)cc1`, the AC50 is > 70 µM (inactive) in [17], 24.9 µM (active) in [18] and 16.4 µM (active) in [19].
For `CCCNC(=O)c1ccc(N2CCC3(CC2)CC(c2ccccc2)=NO3)c(NC(=O)c2ccco2)c1`, the EC50 was 15.7 µM (active) in experiment [20], 38.2 µM (active) in [22], > 167 µM (inactive) in [23] and > 150 µM (not active) in experiment [24]. Further, in [21], the IC50 is 31 µM (inactive).

As a reminder, the EC50 is the midpoint of the concentration-response curve. By AC50 is commonly meant the midpoint of the concentration-response curve, whichever way the signal moves.
